In brackets after ≈: the same amount, converted by molar mass.
Tests used:
[1] = system: EC1007 KPC-3; assay: Dose titration biapenem potentiation assay (MPC1); assay type: cell-based, Escherichia coli; details: for BPM MPC1 EC1007 KPC-3: biapenem 1 μg/mL
Procedure: (§1) The potency and spectrum of β-lactamase inhibitors is also determined by assessing their biapenem potentiation activity in a dose titration potentiation assay using strains expressing serine carbapemenases (such as KPC). The potentiation effect is observed as the ability of BLI compounds to inhibit growth in the presence of sub-inhibitory concentration of biapenem. […] Biapenem is present in the test medium at 1 μg/mL. Compounds tested at the highest concentration of 40 μg/mL. […] Table 5 summarizes BLI potency of biapenem potentiation (MPC1). Biapenem MIC for each strain is also shown.

[2] = molecular target: T1, KPC-2 (Klebsiella pneumoniae KP1004 lysate) (Klebsiella pneumoniae, UniProt Q9F663); assay: Inhibition of biapenem hydrolysis by bacterial lysate; assay type: biochemical
T1 construct: Lysates were prepared from bacteria expressing various β-lactamases as a source of enzymes; endogenous in cells; host or cells: Klebsiella pneumoniae strains KP1004 and KP1008 (freeze-thaw lysate supernatants)
T1 sequence (Q9F663 25-293 limits assumed): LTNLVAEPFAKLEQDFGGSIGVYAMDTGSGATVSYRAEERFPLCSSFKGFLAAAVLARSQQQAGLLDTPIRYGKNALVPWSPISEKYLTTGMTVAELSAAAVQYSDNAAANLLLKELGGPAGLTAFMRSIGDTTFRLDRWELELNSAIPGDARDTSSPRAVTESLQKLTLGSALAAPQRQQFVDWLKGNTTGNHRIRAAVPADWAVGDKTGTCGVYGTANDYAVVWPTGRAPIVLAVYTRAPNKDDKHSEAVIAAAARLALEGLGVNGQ
Procedure: (§2) The activity of β-lactamase inhibitors to inhibit hydrolysis of biapenem was studied. Lysates were prepared from bacteria expressing various β-lactamases as a source of enzymes. Bacterial lysates were prepared as follows. A single colony from the fresh overnight plate was transferred to 5 mL of LB broth and grown to OD600=0.6-0.8. Next, this culture was transferred to 500 mL of LB and grown to OD600=0.7-0.9. Cells were pelleted by centrifugation at 5000 RPM (JA-14 rotor) for 15 minutes at room temperature. The pellet was resuspended in 10 mL of PBS. Five freeze-thaw cycles by putting cells at −20° C. and thawing them at the room temperature were next applied. After the last thaw step cells were spun down at 18K for 30 minutes and the supernatant was collected. This lysate was stored at −20° C.
(§3) Next, the activity of bacterial lysates was optimized for biapenem cleavage as follows. 50 μl of buffer A (50 mM Sodium Phosphate pH=7; 0.5% glucose, 1 mM MgCl2) was added to each well of 96-well UV-transparent plate. 50 μl of lysate was titrated vertically in 96-well plate column to generate 2-fold lysate dilutions. 100 μl of buffer A was added to each well, placed in plate reader at 37° C. and incubated for 15 minutes. 50 μl of 50 μg/mL solutions of biapenem in buffer A (pre-incubated at 37° C. for 15 minutes) were added to each well. Hydrolysis of biapenem was measured at 296 nm. This experiment was used to determine the optimal lysate dilution which produced a linear curve of relative UV signal that decreased to approximately OD=0.3-0.5 over 1 hour.
(§4) Finally, the potency of cyclic boronic acid derivative to inhibit the cleavage of biapenem cleavage by bacterial lysates was determined. 100 μl of buffer A (50 mM Sodium Phosphate pH=7; 0.5% glucose, 1 mM MgCl2) was added to each well of 96-well UV-transparent plate. 50 μl of 6× cyclic boronic acid derivative solution in buffer A was titrated vertically in 96-well plate column to generate 3-fold dilutions. 50 μl of diluted lysate in buffer A (optimal dilution is determined in experiment above) was added, and the plate was incubated in the plate reader at 37° C. for 15 minutes. 50 μl of 50 μg/mL solution of biapenem in buffer A (pre-incubated at 37° C. for 15 minutes) were next added to each well and hydrolysis of biapenem was recorded at 296 nm. EC50 of inhibition was determined by plotting the rate of biapenem cleavage vs. cyclic boronic acid derivative concentration.

[3] = molecular target: T2, SME-2 (Serratia marcescens SM1000 lysate) (Serratia marcescens, UniProt P52682); assay: as above; assay type: biochemical; details: SM1000 SME-2 lysate; read-out: IC50 (μg/mL) of inhibition of biapenem hydrolysis
T2 construct: Lysates were prepared from bacteria expressing various β-lactamases as a source of enzymes
T2 sequence (P52682 28-294 limits assumed): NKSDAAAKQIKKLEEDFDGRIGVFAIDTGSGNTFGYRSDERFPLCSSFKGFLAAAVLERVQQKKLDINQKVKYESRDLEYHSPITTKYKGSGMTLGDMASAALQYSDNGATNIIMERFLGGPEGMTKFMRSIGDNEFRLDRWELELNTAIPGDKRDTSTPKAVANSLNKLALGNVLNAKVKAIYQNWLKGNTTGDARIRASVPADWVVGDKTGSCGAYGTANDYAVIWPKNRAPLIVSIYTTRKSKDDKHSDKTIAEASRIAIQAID
Procedure: as §2, §3, §4

[4] = molecular target: T3, KPC-3 (Escherichia coli EC1007 lysate) (Klebsiella pneumoniae, UniProt Q9F663, H272Y); assay: as above; assay type: biochemical; details: EC1007 KPC-3 lysate; read-out: IC50 (μg/mL) of inhibition of biapenem hydrolysis
T3 construct: Lysates were prepared from bacteria expressing various β-lactamases as a source of enzymes; endogenous in cells; host or cells: Escherichia coli strain EC1007 (freeze-thaw lysate supernatant)
T3 sequence (Q9F663 25-293 H272Y): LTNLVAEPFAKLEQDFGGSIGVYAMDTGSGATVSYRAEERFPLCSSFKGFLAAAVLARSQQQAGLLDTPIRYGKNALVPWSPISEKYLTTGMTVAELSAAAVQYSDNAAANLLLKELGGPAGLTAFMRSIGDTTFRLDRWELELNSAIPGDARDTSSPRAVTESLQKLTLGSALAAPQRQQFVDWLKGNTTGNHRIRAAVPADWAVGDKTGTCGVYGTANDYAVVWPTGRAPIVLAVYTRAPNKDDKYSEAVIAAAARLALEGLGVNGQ
Procedure: as §2, §3, §4

[5] = molecular target: T4, KPC-2 (Klebsiella pneumoniae KP1008 lysate) (Klebsiella pneumoniae, UniProt Q9F663); assay: as above; assay type: biochemical
T4 construct: Lysates were prepared from bacteria expressing various β-lactamases as a source of enzymes; endogenous in cells; host or cells: Klebsiella pneumoniae strains KP1004 and KP1008 (freeze-thaw lysate supernatants)
T4 sequence (Q9F663 25-293 limits assumed): as the sequence (Q9F663 25-293 limits assumed) above
Procedure: as §2, §3, §4

[6] = system: KP1004 KPC-2; assay: Dose titration biapenem potentiation assay (MPC1); assay type: cell-based, Klebsiella pneumoniae; details: for BPM MPC1 KP1004 KPC-2: biapenem 1 μg/mL
Procedure: as §1

[7] = system: KP1008 KPC-2; assay: Dose titration biapenem potentiation assay (MPC1); assay type: cell-based, Klebsiella pneumoniae; details: for BPM MPC1 KP1008 KPC-2: biapenem 1 μg/mL
Procedure: as §1

[8] = system: ECL1004 NMC-A; assay: Dose titration biapenem potentiation assay (MPC1); assay type: cell-based, Enterobacter cloacae; details: for BPM MPC1 ECL1004 NMC-A: biapenem 1 μg/mL
Procedure: as §1

[9] = system: Acinetobacter baumannii AB1054 (OXA-23); assay: Checkerboard assay, biapenem potentiation (MPC8); assay type: cell-based; details: concentration to reduce biapenem MIC 8-fold
Procedure: (§5) The potency and spectrum of β-lactamase inhibitors was determined by assessing their antibiotic potentiation activity.
(§6) The potentiation effect is observed by the reduction of the minimum inhibitory concentration of β-lactam antibiotics in the presence of β-lactamase inhibitors (BLIs). […] Methods for Dilution of Antimicrobial Susceptibility Tests for Bacteria That Grow Aerobically—Eighth Edition; Approved Standard. CLSI Document M07-A8, 2009). In this assay, multiple dilutions of two drugs, namely BLI and β-lactam (biapenem), are being tested, alone and in combination, at concentrations equal to, above and below their respective minimal inhibitory concentrations (MICs). BLIs are solubilized in 10% DMSO at 10 mg/mL. Stock solutions are further diluted, according to the needs of a particular assay, in Mueller Hinton Broth (MHB). Stock solution can be stored at −80° C.
(§7) The checkerboard (CB) assay is performed in microtiter plates. Biapenem is diluted in the x axis, each column containing a single concentration of antibiotic. BLIs are diluted in the y axis, each row containing an equal concentration of BLI. The result of these manipulations is that each well of the microtiter plate contains a unique combination of concentrations of the two agents. The assay is performed in MHB with a final bacterial inoculum of 5×10^5 CFU/mL (from an early-log phase culture). Microtiter plates are incubated during 20 h at 35° C. and are read using a microtiter plate reader (Molecular Devices) at 650 nm as well as visual observation using a microtiter plate reading mirror.
(§8) Biapenem is a carbapenem β-lactam; only selected β-lactamases confer resistance to this class of antibiotics. Among them are serine carbapemenases that belong to class A and class D. Biapenem potentiation is studied in strains expressing various carbapenemases from these classes using CB assays. […] Cyclic boronic acid derivatives were capable of reducing biapenem MICs up to 1000-fold (Table 3).

[10] = system: Acinetobacter baumannii AB1057 (OXA-58); assay: Checkerboard assay, biapenem potentiation (MPC8); assay type: cell-based; details: concentration to reduce biapenem MIC 8-fold
Procedure: as §5, §6, §7, §8

[11] = system: Klebsiella pneumoniae KP1004 (KPC-2); assay: Checkerboard assay, biapenem potentiation (MPC8); assay type: cell-based; details: concentration to reduce biapenem MIC 8-fold
Procedure: as §5, §6, §7, §8

[12] = system: Klebsiella pneumonia (KPM1097) NDM-1, KPC-2; assay: Biapenem MIC at various concentrations of Compound 5; assay type: cell-based; details: Klebsiella pneumoniae
[13] = system: Escherichia coli (EC1061) NDM-1; assay: as above; assay type: cell-based; details: Escherichia coli
[14] = system: Klebsiella oxytoca KX1019 (KPC-2, OXA-2); assay: Checkerboard assay, Compound 5 with biapenem; assay type: cell-based; details: Klebsiella oxytoca
Excerpt: as §6, §7

[15] = system: Klebsiella pneumoniae KP1008 (KPC-2); assay: Checkerboard assay, Compound 5 with biapenem; assay type: cell-based; details: Klebsiella pneumoniae
Excerpt: as §6, §7

[16] = system: Enterobacter cloacae ECL1058 (KPC-3, SHV-11, TEM-1); assay: Checkerboard assay, Compound 5 with biapenem; assay type: cell-based; details: Enterobacter cloacae
Excerpt: as §6, §7

[17] = system: Klebsiella pneumoniae KP1088 (KPC-3, SHV-11, TEM-1); assay: Checkerboard assay, Compound 5 with biapenem; assay type: cell-based; details: Klebsiella pneumoniae
Excerpt: as §6, §7

[18] = system: Klebsiella pneumoniae KP1084 (KPC-3, SHV-11, TEM-1); assay: Checkerboard assay, Compound 5 with biapenem; assay type: cell-based; details: Klebsiella pneumoniae
Excerpt: as §6, §7

[19] = system: Klebsiella pneumoniae KP1083 (KPC-3, SHV-1, TEM-1); assay: Checkerboard assay, Compound 5 with biapenem; assay type: cell-based; details: Klebsiella pneumoniae
Excerpt: as §6, §7

[20] = system: Enterobacter cloacae ECL1059 (KPC-3, SHV-12, TEM-1); assay: Checkerboard assay, Compound 5 with biapenem; assay type: cell-based; details: Enterobacter cloacae
Excerpt: as §6, §7

[21] = system: Klebsiella pneumoniae KP1087 (KPC-2, CTX-M-15, SHV-11, TEM-1); assay: Checkerboard assay, Compound 5 with biapenem; assay type: cell-based; details: Klebsiella pneumoniae
Excerpt: as §6, §7

[22] = system: Klebsiella oxytoca KX1017 (KPC-2, OXA-2, SHV-30); assay: Checkerboard assay, Compound 5 with biapenem; assay type: cell-based; details: Klebsiella oxytoca
Excerpt: as §6, §7

[23] = system: Klebsiella pneumoniae KP1082 (KPC-2, SHV-1); assay: Checkerboard assay, Compound 5 with biapenem; assay type: cell-based; details: Klebsiella pneumoniae
Excerpt: as §6, §7

[24] = system: Escherichia coli EC1007 (KPC-3); assay: Checkerboard assay, Compound 5 with biapenem; assay type: cell-based; details: Escherichia coli
Excerpt: as §6, §7

[25] = system: Klebsiella pneumoniae KP1004 (KPC-2); assay: Checkerboard assay, Compound 5 with biapenem; assay type: cell-based; details: Klebsiella pneumoniae
Excerpt: as §6, §7

[26] = system: Klebsiella oxytoca KX1018 (KPC-2, SHV-40, OXY-1); assay: Checkerboard assay, Compound 5 with biapenem; assay type: cell-based; details: Klebsiella oxytoca
Excerpt: as §6, §7

[27] = system: Klebsiella pneumonia (KP1004) KPC-2; assay: Biapenem MIC at various concentrations of Compound 5; assay type: cell-based; details: Klebsiella pneumoniae

SMILES | BPM MPC1 EC1007 KPC-3 [1] | IC50 [2] | IC50 [3] | IC50 [4] | IC50 [5] | BPM MPC1 KP1004 KPC-2 [6] | BPM MPC1 KP1008 KPC-2 [7] | BPM MPC1 ECL1004 NMC-A [8] | MPC8 [9] | MPC8 [10] | MPC8 [11] | other results
CC(=O)N[C@H]1CCC(CC(=O)O)OB1O (stereo partly drawn) [Compound 3, 2-((3R)-3-acetamido-2-hydroxy-1,2-oxaborinan-6-yl)acetic acid] | X (X = MPC1 of less than 1 μg/mL.) | > 4.65 µM | > 4.65 µM | 0.465 to 4.65 µM | > 4.65 µM | X (X = MPC1 of less than 1 μg/mL.) | X (X = MPC1 of less than 1 μg/mL.) | Y (Y = MPC1 of 1 μg/mL to 5 μg/mL.) | Z (Z = MPC8 of greater than 1 μg/mL.) | Z (Z = MPC8 of greater than 1 μg/mL.) | X (X = MPC8 of less than 0.16 μg/mL.) | 
O=C(O)CC1CC[C@H](NC(=O)C2CC2)B(O)O1 (stereo partly drawn) [Compound 4, 2-((3R)-3-(cyclopropanecarboxamido)-2-hydroxy-1,2-oxaborinan-6-yl)acetic acid] | X (X = MPC1 of less than 1 μg/mL.) | 0.415 to 4.15 µM | 0.415 to 4.15 µM | 0.415 to 4.15 µM | > 4.15 µM | X (X = MPC1 of less than 1 μg/mL.) | X (X = MPC1 of less than 1 μg/mL.) | X (X = MPC1 of less than 1 μg/mL.) | Z (Z = MPC8 of greater than 1 μg/mL.) | Z (Z = MPC8 of greater than 1 μg/mL.) | X (X = MPC8 of less than 0.16 μg/mL.) | 
C[C@@H](O)[C@H]1C(=O)N2C(C(=O)[O-])=C(SC3Cn4cnc[n+]4C3)[C@H](C)[C@H]12 (stereo partly drawn) [Biapenem, reference compound] |  |  |  |  |  |  |  |  |  |  |  | MIC [12]: 16 µg/mL (≈ 45.7 µM); MIC ([1]; Escherichia coli, EC1007 KPC-3): 4 µg/mL; MIC ([6]; Klebsiella pneumoniae, KP1004 KPC-2): > 8 µg/mL; MIC ([7]; Klebsiella pneumoniae, KP1008 KPC-2): 8 µg/mL; MIC [13]: 0.125 µg/mL (≈ 0.357 µM); MIC [14]: > 4 µg/mL; MIC [15]: > 4 µg/mL; MIC [16]: > 4 µg/mL; MIC [17]: > 4 µg/mL; MIC [18]: > 4 µg/mL; MIC [19]: > 4 µg/mL; MIC [20]: 0.5 to 4 µg/mL; MIC [21]: > 4 µg/mL; MIC [22]: 0.5 to 4 µg/mL; MIC [23]: 0.5 to 4 µg/mL; MIC [24]: > 4 µg/mL; MIC [25]: > 4 µg/mL; MIC [26]: > 4 µg/mL; MIC ([8]; Enterobacter cloacae, ECL1004 NMC-A): 8 µg/mL; MIC [27]: 8 µg/mL (≈ 22.8 µM)
